Test results published in patent US8282688B2, “Laccase mediators and methods of use” (Danisco US Inc., priority 2006, dated 2012).
Where “and” joins values, the source holds several entries; their conditions need not be identical. Equal values may be shown once.

Experiments:
Type in all cases: biochemical
[1] = system: Myceliophtora laccase (Denilite II); assay: Soluble indigo bleaching at two pH values, Myceliophtora laccase (Example 3)
Description: (§1) A saturated solution of indigo in N-methylpyrrolidone (NMP) was prepared by stirring indigo (30 mg) in NMP (10 ml) at room temperature for 5 hours. The NMP solution was diluted 10-fold into an aqueous buffer solution resulting in a blue solution. For example, dilution into 50 mM sodium acetate buffer at pH 5, or 50 mM sodium phosphate buffer at pH 7. Solutions were shaken well immediately before use.
(§2) The assay for the bleaching of the solubilized indigo substrate was performed in a 96-well microtitre plate whereby each well received the soluble indigo solution in 50 mM sodium acetate buffer at pH 5 (180 uL), laccase (10 ppm enzyme) and mediator solution (from a 20 mM stock solution in methanol). The total volume of each well was adjusted to 200 uL with deionzed water. A control containing laccase only was run in duplicate. The plate was sealed and incubated at 50° C. for 2 hours at 800 rpm on a heated agitator (Thermomixer, Eppendorf). Following this period, the plates were unsealed and a solution of ascorbic acid (20 uL of a 10% aqueous solution) added to each well in order to reduce the oxidized forms of the mediators. The extent of indigo bleaching was then assessed by determining the absorbance for each well at 600 nm using a microtitre plate reader. The lower the absorbance reading, the greater the extent of indigo bleaching.
(§3) Laccases derived from Myceliophtora (Denilite® II, Novozymes, Bagsvaerd, Denmark), Thielavia (Ecostone LCC10, AB enzymes, Darmstadt, Germany) and Cerrena sp. were assessed for their ability to bleach solubilized indigo in conjunction with low molecular weight mediators at two pH values.
(§4) Bleaching of solubilized indigo in 96-well microtitre plates was performed as described in Example 1, using 3 different laccases at pH values of 5 and 7.

[2] = system: Thielavia laccase (Ecostone LCC10); assay: Soluble indigo bleaching at two pH values, Thielavia laccase (Example 3)
Description: as §1, §2, §3, §4

Cerrena sp. laccase = assay: Soluble indigo bleaching at two pH values, Cerrena sp. laccase (Example 3)
Description: as §1, §2, §3, §4

[3] = system: Thielavia sp. laccase (Ecostone LCC10); assay: Bleaching of solubilized indigo, Thielavia sp. laccase with mediators (Example 2); settings: laccase 10 ppm, pH 5, 50° C., 2 hours, n = 2
Description: An assay for the bleaching of the solubilized indigo substrate by laccase/mediator combinations was performed in a 96-well microtitre plate as follows
as §1, §2

C. unicolor laccase = assay: Bleaching of denim swatches with C. unicolor laccase (Example 4); parameters: key to ΔL Denim swatch Frontside / Δb Denim swatch Frontside / ΔL Denim swatch Backside / Δb Denim swatch Backside / Δa Denim swatch Backside / Δa Denim swatch Frontside: difference between initial and final CIE L*a*b* values; key to ΔE (total color difference) Denim swatch Backside / ΔE (total color difference) Denim swatch Frontside: ΔE = (ΔL²+Δa²+Δb²)^1/2 from CIE L*a*b* before/after bleaching; settings: for ΔE (total color difference) Denim swatch Backside / ΔE (total color difference) Denim swatch Frontside / ΔL Denim swatch Backside / ΔL Denim swatch Frontside / Δa Denim swatch Backside / Δb Denim swatch Backside / Δb Denim swatch Frontside: laccase 20 ppm, pH 6, 50° C., 2 hours
Description: Denim legs (made out of sulfur bottom/indigo dyed denim fabric from Cone Mill, style number 1662P) were pretreated with IndiAge® 2XL at a dose of 1 gram per liter in a 50 lb lab scale tumbling washer. The liquor ratio was 6 to 1 (5 kg substrate in 30 liters of water) and the treatment was performed at 55° C. at pH 4.5 for 1 hour. A warm rinse followed the cellulase treatment, after which the fabric was dried in a tumble dryer. A punch press was used to cut ⅝ inch denim disks from IndiAge® 2XL pretreated denim legs. Each denim disk is pre read with a Chroma Meter CR-200 by Minolta in order to determine the CIE L*a*b* values of both the front and backside of the fabric disk.
One denim disk is placed in each well of two duplicate 12 well micro-titer plates. Each well received C. unicolor laccase (20 uL of 1/20 dilution, approx. 20 ppm), mediator (200, 100, 50 or 20 uL of a 20 mM stock solution in methanol) and 50 mM potassium phosphate buffer, pH 6 for a total volume of 2 mL/well. The mediators were methyl syringate (MS), 4-cyano-2,6-dimethoxyphenol (SN) and 3,4,5-trimethoxyphenol (TMP). The plates were sealed and incubated at 50° C. for 2 hours at 150 rpm in a standard incubator. Following this period, the swatches were removed from the plates and carefully placed on a filter paper in a Buchner funnel and washed with copious amounts of water, followed by drying of the residual water under high vacuum overnight. The swatches were then re-read with the chromometer in order to determine the CIE L*a*b* values of both the front and backside of the disk following bleaching. The total color difference (ΔE) is calculated from the difference between the initial and final CIE L*a*b* values according to the formula ΔE=(ΔL^2+Δa^2+Δb^2)^1/2 The total color differences (ΔE) as a function of mediator concentration are plotted in FIGS. 5 and 6.

SMILES: COc1cc(C(N)=O)cc(OC)c1O [SA, 4-carboxamido-2,6-dimethoxyphenol]
- ΔA600 Myceliophtora ([1]; pH 5, mediator 250 uM): 0.254
- ΔA600 Myceliophtora ([1]; pH 7, mediator 250 uM): 0.220
- ΔA600 Thielavia ([2]; pH 5, mediator 250 uM): 0.170
- ΔA600 Thielavia ([2]; pH 7, mediator 250 uM): 0.162
- ΔA600 Cerrena (Cerrena sp. laccase; pH 5, mediator 250 uM): 0.142
- ΔA600 Cerrena (Cerrena sp. laccase; pH 7, mediator 250 uM): 0.128
- ΔA600 (change in absorbance at 600 nm relative to control) ([3]; mediator 50 mM Concentration (head)): 0.088
- ΔA600 (change in absorbance at 600 nm relative to control) ([3]; mediator 500 mM Concentration (head)): 0.170

SMILES: COc1cc(C#N)cc(OC)c1O [SN, 4-cyano-2,6-dimethoxyphenol]
- effectiveness as mediator for denim swatch bleaching (C. unicolor laccase; C. unicolor laccase 20 ppm, 200-2000 uM mediator): most effective mediator
- ΔE (total color difference) Denim swatch Backside (C. unicolor laccase; mediator 200 uM): 10.39 and 10.37
- ΔE (total color difference) Denim swatch Frontside (C. unicolor laccase; mediator 200 uM): 7.24 and 8.51
- ΔL Denim swatch Backside (C. unicolor laccase; mediator 200 uM): 8.38 and 8.67
- ΔL Denim swatch Frontside (C. unicolor laccase; mediator 200 uM): 6.63 and 7.98
- Δa Denim swatch Backside (C. unicolor laccase; mediator 200 uM): 0.54 and 0.38
- Δb Denim swatch Backside (C. unicolor laccase; mediator 200 uM): 6.12 and 5.67
- Δb Denim swatch Frontside (C. unicolor laccase; mediator 200 uM): 2.57 and 2.67
- ΔE (total color difference) Denim swatch Backside (C. unicolor laccase; mediator 500 uM): 13.43 and 14.11
- ΔE (total color difference) Denim swatch Frontside (C. unicolor laccase; mediator 500 uM): 15.59 and 13.17
- ΔL Denim swatch Backside (C. unicolor laccase; mediator 500 uM): 10.71 and 11.6
- ΔL Denim swatch Frontside (C. unicolor laccase; mediator 500 uM): 14.46 and 12.06
- Δa Denim swatch Backside (C. unicolor laccase; mediator 500 uM): 0.35 and 0.38
- Δb Denim swatch Backside (C. unicolor laccase; mediator 500 uM): 8.1 and 8.03
- Δb Denim swatch Frontside (C. unicolor laccase; mediator 500 uM): 5.51 and 4.92
- ΔE (total color difference) Denim swatch Backside (C. unicolor laccase; mediator 1000 uM): 13.98 and 15.19
- ΔE (total color difference) Denim swatch Frontside (C. unicolor laccase; mediator 1000 uM): 14.75 and 14.92
- ΔL Denim swatch Backside (C. unicolor laccase; mediator 1000 uM): 11.45 and 12.1
- ΔL Denim swatch Frontside (C. unicolor laccase; mediator 1000 uM): 13.54 and 13.84
- Δa Denim swatch Backside (C. unicolor laccase; mediator 1000 uM): 0.07 and 0.14
- Δb Denim swatch Backside (C. unicolor laccase; mediator 1000 uM): 8.02 and 9.19
- Δb Denim swatch Frontside (C. unicolor laccase; mediator 1000 uM): 5.47 and 4.98
- ΔE (total color difference) Denim swatch Backside (C. unicolor laccase; mediator 2000 uM): 15.31 and 16.59
- ΔE (total color difference) Denim swatch Frontside (C. unicolor laccase; mediator 2000 uM): 16.03 and 14.48
- ΔL Denim swatch Backside (C. unicolor laccase; mediator 2000 uM): 12.34 and 13.58
- ΔL Denim swatch Frontside (C. unicolor laccase; mediator 2000 uM): 14.79 and 13.23
- Δb Denim swatch Backside (C. unicolor laccase; mediator 2000 uM): 9.06 and 9.52
- Δb Denim swatch Frontside (C. unicolor laccase; mediator 2000 uM): 5.8 and 5.58
